In PubChem BioAssay AID1963875 (Molecular Pharmacology Branch, DTP, NCI, 2024):
pIC50: −log10 of the molar value.

Tested on: KRAS-mutant PDC complex spheroid viability
Experiment: Anticancer human tumor 186277-243-T-J2-PDC patient-derived colon adenocarcinoma cell line growth inhibition [KRAS2]
Settings: for pIC50: curve of first compound; for viability, T/C: stronger effect = lower value
In short: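 KRAS-mutant tumor cells were grown as spheroids with HUVEC endothelial cells and human MSCs as stroma. Targeted agents were tested alone and with KRAS pathway inhibitors. Doses started at or near clinical Cmax, or 10 microM, descending half-log.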

[1] = second compound 0.0316 µM, first compound 0.0316 µM
[2] = second compound 0.0316 µM, first compound 0.1 µM
[3] = second compound 0.0316 µM, first compound 0.316 µM
[4] = second compound 0.0316 µM, first compound 1 µM
[5] = second compound 0.0316 µM, first compound 3.16 µM
[6] = second compound 0.1 µM, first compound 0.01 µM
[7] = second compound 0.1 µM, first compound 0.0316 µM
[8] = second compound 0.1 µM, first compound 0.1 µM
[9] = second compound 0.1 µM, first compound 0.316 µM
[10] = second compound 0.1 µM, first compound 1 µM
[11] = second compound 0.1 µM, first compound 3.16 µM
[12] = second compound 0.316 µM, first compound 0.01 µM
[13] = second compound 0.316 µM, first compound 0.0316 µM
[14] = second compound 0.316 µM, first compound 0.1 µM
[15] = second compound 0.316 µM, first compound 0.316 µM
[16] = second compound 0.316 µM, first compound 1 µM
[17] = second compound 0.316 µM, first compound 3.16 µM
[18] = second compound 1 µM, first compound 0.01 µM
[19] = second compound 1 µM, first compound 0.0316 µM
[20] = second compound 1 µM, first compound 0.1 µM
[21] = second compound 1 µM, first compound 0.316 µM
[22] = second compound 1 µM, first compound 1 µM
[23] = second compound 1 µM, first compound 3.16 µM
[24] = second compound 3.16 µM, first compound 0.01 µM
[25] = second compound 3.16 µM, first compound 0.0316 µM
[26] = second compound 3.16 µM, first compound 0.1 µM
[27] = second compound 3.16 µM, first compound 0.316 µM
[28] = second compound 3.16 µM, first compound 1 µM
[29] = second compound 3.16 µM, first compound 3.16 µM
[30] = second compound 0.0316 µM, first compound 10 µM
[31] = second compound 0.1 µM, first compound 10 µM
[32] = second compound 0.316 µM, first compound 10 µM
[33] = second compound 1 µM, first compound 10 µM
[34] = second compound 3.16 µM, first compound 10 µM
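Wherever viability, T/C is given: viability read after seven days of compound exposure; 100% = DMSO vehicle-treated spheroids so lower means less viable.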

SMILES	pIC50 (second compound 0.1 µM)	pIC50 (second compound 0.316 µM)	pIC50 (second compound 1 µM)	pIC50 (second compound 3.16 µM)	viability, T/C [7]	viability, T/C [8]	viability, T/C [9]	viability, T/C [10]	viability, T/C [11]	viability, T/C [13]	viability, T/C [14]	viability, T/C [15]	viability, T/C [16]	viability, T/C [17]	viability, T/C [19]	viability, T/C [20]	viability, T/C [21]	viability, T/C [22]	viability, T/C [23]	viability, T/C [25]	further results
CC1COCCN1c1cc(-c2ccnn2C)c2ccnc(-c3ccn[nH]3)c2n1 (stereo not given) + C=CC(=O)N1CCN(c2nc(OCC3CCCN3C)nc3c2CCN(c2cccc4cccc(C)c24)C3)CC1CC#N	7.70	7.72	7.74	> 8.00	24.3%	7.71%	5.76%	5.41%	5.94%	21.6%	7.5%	5.3%	5.1%	5.45%	12.7%	7.23%	5.64%	4.81%	4.49%	1.73%	pIC50 (second compound 0.0316 µM): 7.69; viability, T/C (second compound 0.0316 µM, first compound 0.01 µM): 88.9%; viability, T/C [1]: 25.8%; viability, T/C [2]: 7.37%; viability, T/C [3]: 5.84%; viability, T/C [4]: 5.53%; viability, T/C [5]: 6.31%; viability, T/C [6]: 87.5%; viability, T/C [12]: 85.9%; viability, T/C [18]: 91.2%; viability, T/C [24]: 1.43%; viability, T/C [26]: 1.13%; viability, T/C [27]: 1.47%; viability, T/C [28]: 0.61%; viability, T/C [29]: 1.05%
CC1OCC2(CCN(c3cnc(Sc4ccnc(N)c4Cl)c(N)n3)CC2)C1N (stereo not given) + C=CC(=O)N1CCN(c2nc(OCC3CCCN3C)nc3c2CCN(c2cccc4cccc(C)c24)C3)CC1CC#N	< 5.00	< 5.00	< 5.00	> 7.50	108%	112%	110%	103%	104%	113%	111%	102%	110%	102%	102%	99.9%	101%	107%	118%	1.51%	pIC50 (second compound 0.0316 µM): < 5.00; viability, T/C [1]: 111%; viability, T/C [2]: 101%; viability, T/C [3]: 108%; viability, T/C [4]: 101%; viability, T/C [5]: 102%; viability, T/C [30]: 116%; viability, T/C [31]: 110%; viability, T/C [32]: 116%; viability, T/C [33]: 88.5%; viability, T/C [26]: 10%; viability, T/C [27]: 0.47%; viability, T/C [28]: 0.22%; viability, T/C [29]: 0.3%; viability, T/C [34]: 1.11%
Cn1nccc1Nc1nccc(-c2cc3c(s2)C(C)(C)N(CCN2CCOCC2)C3=O)n1 + C=CC(=O)N1CCN(c2nc(OCC3CCCN3C)nc3c2CCN(c2cccc4cccc(C)c24)C3)CC1CC#N	6.34	6.46	6.41	> 7.50	105%	104%	70.2%	5.12%	9.32%	101%	97.1%	51.8%	15.8%	5.05%	91%	88.6%	59.1%	8.02%	4.02%	10.1%	pIC50 (second compound 0.0316 µM): 6.39; viability, T/C [1]: 111%; viability, T/C [2]: 96.7%; viability, T/C [3]: 63%; viability, T/C [4]: 5.23%; viability, T/C [5]: 6.25%; viability, T/C [30]: 6.65%; viability, T/C [31]: 6.37%; viability, T/C [32]: 7.23%; viability, T/C [33]: 4.26%; viability, T/C [26]: 1.3%; viability, T/C [27]: 0.45%; viability, T/C [28]: 0.51%; viability, T/C [29]: 0.15%; viability, T/C [34]: 0.16%
CC(=O)OC12COC1CC(O)C1(C)C(=O)C(O)C3=C(C)C(OC(=O)C(O)C(NC(=O)OC(C)(C)C)c4ccccc4)CC(O)(C(OC(=O)c4ccccc4)C21)C3(C)C (stereo not given) + CC1OCC2(CCN(c3cnc(Sc4ccnc(N)c4Cl)c(N)n3)CC2)C1N	> 8.00	> 8.00	> 8.00	> 8.00	2.69%	2.31%	2.12%	2.12%	2.53%	3.64%	1.94%	1.7%	1.93%	2.14%	3.42%	3.58%	2.84%	3.01%	3.67%	1.65%	pIC50 (second compound 10 µM): > 8.00; viability, T/C [6]: 4.2%; viability, T/C [12]: 2.83%; viability, T/C [18]: 4.63%; viability, T/C [24]: 2.53%; viability, T/C [26]: 2.04%; viability, T/C [27]: 1.63%; viability, T/C [28]: 1.81%; viability, T/C [29]: 2.09%; viability, T/C (second compound 10 µM, first compound 0.01 µM): 1.96%; viability, T/C (second compound 10 µM, first compound 0.0316 µM): 1.99%; viability, T/C (second compound 10 µM, first compound 0.1 µM): 1.61%; viability, T/C (second compound 10 µM, first compound 0.316 µM): 1.82%; viability, T/C (second compound 10 µM, first compound 1 µM): 1.73%; viability, T/C (second compound 10 µM, first compound 3.16 µM): 1.74%
